One may read the IC50 as the concentration that gives 50% inhibition.

The nature of series [1]: Human hepatocyte clearance study. The series is classed as in vitro ADME. The settings on record: pooled cryopreserved human hepatocytes (suspension); for CLint scaled at 1 µM: human, scaled up from in vitro t1/2, scaling factor 2544.3, read-out: Human Scale-up Clint; for hepatocyte CLint at 1 µM / half-life at 1 µM: pooled human hepatocytes; for hepatocyte CLint at 1 µM: read-out: Human In vitro Clint (μL/min/10^6 cells); for half-life at 1 µM: read-out: Human In vitro T1/2. How it is done: (§1) The in vitro human hepatocyte clearance of compounds described here was studied using pooled human hepatocytes purchased from BioreclamationIVT (Westbury, NY, Cat #X008001, Lot #TQJ). The assay was conducted according to manufacture's instruction. Briefly, 10 mM stock solutions of test compounds and positive control (Verapamil) were prepared in 100% DMSO. Thawing media (50 mL) used in the study consists of: 31 mLWilliams E medium (GIBCO Cat #12551-032); 15 mL isotonic percoll (GE Healthcare Cat #17-0891-09); 500 uL 100XGlutaMax (GIBCO Cat #35050); 750 uL HEPES (GIBCO Cat #15630-080); 2.5 mL FBS (Corning Cat #35-076*CVR); 50 uL human insulin (GIBCO Cat #12585-014) and 5 uL dexamethasone (NICPBP). Incubation media is made of Williams E medium supplemented with 1xGlutaMax. Both thawing medium and incubation medium (serum-free) were placed in a 37° C. water bath for at least 15 minutes prior to use. Compound stock solutions were diluted to 100 μM by combining 198 μL of 50% acetonitrile/50% water and 2 μL of 10 mM stock solution. Verapamil was use as positive control in the assay. Vials of cryopreserved hepatocytes were removed from storage and thawed in a 37° C. water bath with gentle shaking. Contents of the vial were poured into the 50 mL thawing medium conical tube. Vials were centrifuged at 100 g for 10 minutes at room temperature. Thawing medium was aspirated and hepatocytes were re-suspended with serum-free incubation medium to yield ˜1.5×10^6 cells/mL. Hepatocyte viability and density were counted using a Trypan Blue exclusion, and then cells were diluted with serum-free incubation medium to a working cell density of 0.5×10^6 viable cells/mL. Then, a portion of the hepatocytes at 0.5×10^6 viable cells/mL was boiled for 5 minutes prior to adding to the plate as negative control to eliminate the enzymatic activity so that little or no substrate turnover should be observed. The boiled hepatocytes were used to prepare negative samples. Aliquots of 198 μL hepatocytes were dispensed into each well of a 96-well non-coated plate. The plate was placed in the incubator on an orbital shaker at 500 rpm for approximately 10 minutes. Aliquots of 2 μL of the 100 μM test compound or positive control were added into respective wells of the non-coated 96-well plate to start the reaction. This assay was performed in duplicate. The plate was incubated in the incubator on an orbital shaker at 500 rpm for the designated time points. Twenty-five microliter of contents were transferred and mixed with 6 volumes (150 μL) of cold acetonitrile with IS (200 nM imipramine, 200 nM labetalol and 200 nM diclofenac) to terminate the reaction at time points of 0, 15, 30, 60, 90 and 120 minutes. Samples were centrifuged at 3,220 g for 25 minutes and aliquots of 150 μL of the supernatants were used for LC-MS/MS analysis. For data analysis, all calculations were carried out using Microsoft Excel. Peak areas were determined from extracted ion chromatograms. The in vitro half-life (t1/2) of parent compound was determined by regression analysis of the percent parent disappearance vs. time curve. The in vitro half-life (in vitro t1/2) was determined from the slope value: in vitro t1/2=0.693/k. […] Scaling factors for in vivo intrinsic clearance prediction using human hepatocytes are listed as: liver weight (g liver/kg body weight): 25.7; hepatocyte concentration (10^6 cells/g liver): 99; scaling factor: 2544.3.

In series [2] the test system is pooled human hepatocytes. As to the kind of experiment: Human hepatocyte clearance study. It is filed as in vitro ADME. The settings on record: pooled human hepatocytes, 120 min. How it is done:
as §1

The test system of series [3] is kynurenine production in HeLa cells. As to the kind of experiment: Inhibition of kynurenine production in HeLa cells. It is filed as cell-based, human. Particulars: Homo sapiens, HeLa, 48 h, HeLa cells, human IFN-γ 50 ng/mL, kynurenine read at 480 nm, read-out: IC50. How it is done: The effect of compounds described herein on the inhibition of kynurenine production in HeLa cells (derived from human cervical cancer) was determined. HeLa cells were seeded into a 96-well culture plate at a density of 5×10^3 per well in RPMI1640/phenol red free media (from GIBCO) with 2 mM L-glutamine and 10% fetal bovine serum (FBS, from GIBCO) and grown overnight in a 37° C. incubator with 5% CO2. Twenty-four hours later, human IFN-γ (from GIBCO) (final concentration 50 ng/mL) and test compound solutions (serially diluted to different wells) were added to each well with a final volume of 200 uL per well. Forty-eight hours after incubation with compounds, 140 uL supernatant was taken from each well and was transferred to a new 96-well plate. Ten microliters of 6.1 N trichloroacetic acid were added into each well, mixed and incubated at 50° C. for 30 minutes. The reaction mixture was then centrifuged for 10 minutes at 2500 rpm and 100 uL of the supernatant per well was transferred to another 96 well plate and mixed with 100 uL of 2% (w/v) p-dimethylaminobenzaldehyde in acetic acid. The yellow color derived from kynurenine was measured at 480 nm using a SPECTRAmax i3 reader. Each compound concentration was done in triplicates and compound IC50 value was calculated using nonlinear regression using Graphpad Prism 5.0.
The inhibitory activity of representative compounds described herein, compared with another IDO inhibitor, such as INCB-24360, Controls 1 and 2 are shown in Table 2.

In the case of `CC(C)CN(c1ncc(C2(C(=O)O)CCC2)cc1Nc1ccc(C#N)cc1)C1CCOCC1` [Compound 91], in series [1], the CLint scaled at 1 µM stood at 3.3 mL/min/kg, the hepatocyte CLint at 1 µM was 1.3 µL/min/1e6 cells and the half-life at 1 µM amounted to 17.7 h. Further, in series [2], the “Human Hepatocyte Remaining Percentage @ 120 min” value stood at 92. In addition, the half-maximal inhibitory concentration (IC50) in series [3] was 300 pM.

With `CCOc1ncc(Nc2cc(C3(C(=O)O)CCC3)ccc2N(CC(C)C)C2CCOCC2)cn1` [Compound 75], in series [1], the CLint scaled at 1 µM worked out at 6.6 mL/min/kg, the hepatocyte CLint at 1 µM was determined as 2.6 µL/min/1e6 cells and the half-life at 1 µM was 8.9 h. Moreover, in series [2], the “Human Hepatocyte Remaining Percentage @ 120 min” value is on record as 88. Also, the IC50 in series [3] amounted to 300 pM.

Regarding `CCN(c1ncc(C2(C(=O)O)CCC2)cc1Nc1ccc(C#N)cc1)C1CCOCC1` [Compound 125], in series [1], the CLint scaled at 1 µM was 2.2 mL/min/kg, the hepatocyte CLint at 1 µM amounted to 0.9 µL/min/1e6 cells and the half-life at 1 µM amounted to 26.6 h. Also, in series [2], the “Human Hepatocyte Remaining Percentage @ 120 min” value amounted to 97. Also, the IC50 in series [3] came out at 500 pM.

For the compound `CC(C)N(CC1CC1)c1ncc(C2(C(=O)O)CCC2)cc1Nc1ccc(C#N)cn1` [Compound 110], in series [1], the CLint scaled at 1 µM turned out to be 16 mL/min/kg, the hepatocyte CLint at 1 µM is 6.4 µL/min/1e6 cells and the half-life at 1 µM amounted to 3.6 h. Moreover, in series [2], the “Human Hepatocyte Remaining Percentage @ 120 min” value amounted to 71. Moreover, in series [3], the IC50 is 1000 pM.

With `CC(C)CN(CC(C)C)c1ccc(C2(C(=O)O)CCCC2)cc1Nc1ccccc1` [Compound 48], in series [1], the CLint scaled at 1 µM came to 2 mL/min/kg, the hepatocyte CLint at 1 µM amounted to 0.8 µL/min/1e6 cells and the half-life at 1 µM was 28.9 h. Besides, the “Human Hepatocyte Remaining Percentage @ 120 min” value in series [2] is on record as 105. The IC50 in series [3] came out at 8400 pM.

In the case of `CC(C)CN(CC(C)C)c1ncc(C2(C(=O)O)CCC2)cc1Nc1ccc(C#N)cn1` [Compound 106], in series [1], the CLint scaled at 1 µM came out at 18 mL/min/kg, the hepatocyte CLint at 1 µM worked out at 7 µL/min/1e6 cells and the half-life at 1 µM worked out at 3.3 h. Moreover, the “Human Hepatocyte Remaining Percentage @ 120 min” value in series [2] is 69. Also, in series [3], the concentration for half-maximal inhibition (IC50) is 400 pM.

On to `CCN(c1ccc(C2(C(=O)O)CCC2)cc1Nc1ccc(Cl)cn1)C1CCOCC1` [Compound 115], for which, in series [1], the CLint scaled at 1 µM worked out at 9.3 mL/min/kg, the hepatocyte CLint at 1 µM is 3.6 µL/min/1e6 cells and the half-life at 1 µM stood at 6.35 h. Further, the “Human Hepatocyte Remaining Percentage @ 120 min” value in series [2] turned out to be 83. For the same compound, the IC50 in series [3] worked out at 100 pM.

For `CCN(c1ccc(C2(C(=O)O)CCC2)cc1Nc1ccc(C#N)cn1)C1CCOCC1` [Compound 118], in series [1], the CLint scaled at 1 µM came out at 8.5 mL/min/kg, the hepatocyte CLint at 1 µM came to 3.3 µL/min/1e6 cells and the half-life at 1 µM came to 6.93 h. Further, the “Human Hepatocyte Remaining Percentage @ 120 min” value in series [2] is on record as 85. Moreover, the IC50 in series [3] is 200 pM.

As to `CC(C)CN(CC(C)C)c1ncc(C2(C(=O)O)CCC2)cc1Nc1ccc(Cl)cc1` [Compound 84], in series [1], the CLint scaled at 1 µM is 5.7 mL/min/kg, the hepatocyte CLint at 1 µM was found to be 2.2 µL/min/1e6 cells and the half-life at 1 µM was determined as 10.4 h. In addition, the “Human Hepatocyte Remaining Percentage @ 120 min” value in series [2] turned out to be 80. In addition, the 50% inhibitory concentration (IC50) in series [3] was found to be 400 pM.

As to `CCOc1ncc(Nc2cc(C3(C(=O)O)CCC3)ccc2N(CC)C2CCOCC2)cn1` [Compound 117], in series [1], the CLint scaled at 1 µM is 1.7 mL/min/kg, the hepatocyte CLint at 1 µM came out at 0.7 µL/min/1e6 cells and the half-life at 1 µM was 35.4 h. For the same compound, the “Human Hepatocyte Remaining Percentage @ 120 min” value in series [2] was 93. Besides, the IC50 in series [3] turned out to be 900 pM.

Turning to `CC(C)CN(CC(C)C)c1ccc(C2(C(=O)O)CCC2)cc1Nc1ccc(Cl)cn1` [Compound 105], in series [1], the CLint scaled at 1 µM turned out to be 13 mL/min/kg, the hepatocyte CLint at 1 µM came out at 5.1 µL/min/1e6 cells and the half-life at 1 µM is 4.58 h. In addition, the “Human Hepatocyte Remaining Percentage @ 120 min” value in series [2] is on record as 81. The IC50 in series [3] came to 300 pM.

Source of the values: patent publication US11969425B2, “Inhibitor of indoleamine-2,3-dioxygenase (IDO)” (InventisBio LLC, priority 2016, dated 2024).
